Assay results published in ChEMBL document CHEMBL1201862, “PubChem BioAssay data set” (2004).
Activity calls are given as the source filed them.

How the values were obtained:
[1] = THP-1 cell cytotoxicity, cytotoxicity control, set 4 (AID 504911); format: functional; conditions: Mycobacterium tuberculosis
[2] = target: Mitochondrial peptide methionine sulfoxide reductase (Bos taurus, UniProt P54149); format: functional;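 further: absorbance read-out, biochemical high-throughput dose-response screen for MsrA inhibitors, confirmatory; recombinant bovine MsrA coupled to E. coli TrxB with NADPH and selenocystamine; potency is for inhibitors of MsrA activity on DMSO substrate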
CHO = experiment: cytotoxicity in TLR9-MyD88 CHO cells, dose response, cytotoxicity control for TLR9-MyD88 binding inhibitor project, cell-based, luminescence (AID 588339); format: functional, hamster; conditions: Cricetulus griseus;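 further: CHO cells stably coexpressing TLR9 and MyD88 fusions from primary screen; compound exposure lasted 48 hours before viability readout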
[3] = target: T1, Endoribonuclease toxin MazF (Escherichia coli K-12, UniProt P0AE70); experiment: MazF toxin RNase activators, dose response, biochemical, fluorescence, single-stranded RNA substrate, uHTS hits (AID 588481); format: functional
T1 sequence (P0AE70 whole entry): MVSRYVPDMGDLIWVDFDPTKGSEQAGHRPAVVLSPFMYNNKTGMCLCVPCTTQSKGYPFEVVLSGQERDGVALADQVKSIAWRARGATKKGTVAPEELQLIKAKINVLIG

Beta Lactamase = Beta Lactamase (Pseudomonas aeruginosa, UniProt Q932Y6); experiment: beta-lactamase reporter inhibitor potency, dose response, artefact control for TLR9-MyD88 binding inhibitor project, BLA reporter cells, FRET fluorescence (AID 588341); format: cell-based;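 further: cell based assay in CHO-K1 cells stably expressing beta-lactamase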
[4] = target: T1, Endoribonuclease toxin MazF; experiment: fluorescent RNA oligo signal without MazF, dose response, counter-screen for MazEF activator project, biochemical, fluorescence, single-stranded RNase substrate (AID 588502); format: functional
[5] = target: T2, Neuropeptides B/W receptor type 1 (Homo sapiens, UniProt P48145); experiment: GPR7 antagonist potency, late-stage follow-up, cell-based, fluorescence, dose response, set 5 (AID 588566); format: functional
T2 sequence (P48145 whole entry): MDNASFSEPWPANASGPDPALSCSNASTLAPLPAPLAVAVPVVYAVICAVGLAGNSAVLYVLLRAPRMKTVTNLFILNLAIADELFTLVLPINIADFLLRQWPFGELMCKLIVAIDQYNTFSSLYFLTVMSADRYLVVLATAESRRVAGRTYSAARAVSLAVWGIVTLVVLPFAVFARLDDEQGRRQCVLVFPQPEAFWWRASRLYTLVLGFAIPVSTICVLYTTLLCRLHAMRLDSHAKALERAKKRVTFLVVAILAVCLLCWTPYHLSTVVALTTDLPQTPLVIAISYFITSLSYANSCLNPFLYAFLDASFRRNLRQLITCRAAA

[6] = target: Melanin-concentrating hormone receptor 1 (Homo sapiens, UniProt Q99705); experiment: Late-stage fluorescence-based counterscreen for antagonists of the G-protein coupled receptor 7 (GPR7): cell-based dose response assay to identify antagonists of the melanin-concentrating hormone receptor 1 (MCHR1) Set 5.; format: functional
[7] = target: Serine/threonine-protein kinase pim-1 (Homo sapiens, UniProt P11309); format: functional
[8] = target: Cell division cycle 7-related protein kinase (Homo sapiens, UniProt O00311); format: functional;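 further: value obtained from a kinome-wide kinase panel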
[9] = target: Homeodomain-interacting protein kinase 2 (Homo sapiens, UniProt Q9H2X6); format: functional;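 further: measured within a kinome-wide kinase profiling panel, HIPK2 being one panel member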
[10] = target: Interleukin-1 receptor-associated kinase 4 (Homo sapiens, UniProt Q9NWZ3); format: functional
[11] = target: Glycogen synthase kinase-3 beta (Homo sapiens, UniProt P49841); format: functional;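 further: value comes from a broad kinome profiling panel, with GSK3B as the panel member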
[12] = target: cAMP-dependent protein kinase catalytic subunit alpha (Homo sapiens, UniProt P17612); format: functional
[13] = target: Mitogen-activated protein kinase kinase kinase kinase 4 (Homo sapiens, UniProt O95819); format: functional
[14] = target: T3, Apoptotic protease-activating factor 1 (Homo sapiens, UniProt O14727); experiment: SAR analysis of small molecule Activators of Apaf-1 in a Fluorescent assay.; format: functional; conditions: read-out: EC50_Mean;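 further: caspase-3 cleavage of fluorogenic Rh110 DEVD substrate downstream of apoptosome activation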
T3 sequence (O14727 whole entry): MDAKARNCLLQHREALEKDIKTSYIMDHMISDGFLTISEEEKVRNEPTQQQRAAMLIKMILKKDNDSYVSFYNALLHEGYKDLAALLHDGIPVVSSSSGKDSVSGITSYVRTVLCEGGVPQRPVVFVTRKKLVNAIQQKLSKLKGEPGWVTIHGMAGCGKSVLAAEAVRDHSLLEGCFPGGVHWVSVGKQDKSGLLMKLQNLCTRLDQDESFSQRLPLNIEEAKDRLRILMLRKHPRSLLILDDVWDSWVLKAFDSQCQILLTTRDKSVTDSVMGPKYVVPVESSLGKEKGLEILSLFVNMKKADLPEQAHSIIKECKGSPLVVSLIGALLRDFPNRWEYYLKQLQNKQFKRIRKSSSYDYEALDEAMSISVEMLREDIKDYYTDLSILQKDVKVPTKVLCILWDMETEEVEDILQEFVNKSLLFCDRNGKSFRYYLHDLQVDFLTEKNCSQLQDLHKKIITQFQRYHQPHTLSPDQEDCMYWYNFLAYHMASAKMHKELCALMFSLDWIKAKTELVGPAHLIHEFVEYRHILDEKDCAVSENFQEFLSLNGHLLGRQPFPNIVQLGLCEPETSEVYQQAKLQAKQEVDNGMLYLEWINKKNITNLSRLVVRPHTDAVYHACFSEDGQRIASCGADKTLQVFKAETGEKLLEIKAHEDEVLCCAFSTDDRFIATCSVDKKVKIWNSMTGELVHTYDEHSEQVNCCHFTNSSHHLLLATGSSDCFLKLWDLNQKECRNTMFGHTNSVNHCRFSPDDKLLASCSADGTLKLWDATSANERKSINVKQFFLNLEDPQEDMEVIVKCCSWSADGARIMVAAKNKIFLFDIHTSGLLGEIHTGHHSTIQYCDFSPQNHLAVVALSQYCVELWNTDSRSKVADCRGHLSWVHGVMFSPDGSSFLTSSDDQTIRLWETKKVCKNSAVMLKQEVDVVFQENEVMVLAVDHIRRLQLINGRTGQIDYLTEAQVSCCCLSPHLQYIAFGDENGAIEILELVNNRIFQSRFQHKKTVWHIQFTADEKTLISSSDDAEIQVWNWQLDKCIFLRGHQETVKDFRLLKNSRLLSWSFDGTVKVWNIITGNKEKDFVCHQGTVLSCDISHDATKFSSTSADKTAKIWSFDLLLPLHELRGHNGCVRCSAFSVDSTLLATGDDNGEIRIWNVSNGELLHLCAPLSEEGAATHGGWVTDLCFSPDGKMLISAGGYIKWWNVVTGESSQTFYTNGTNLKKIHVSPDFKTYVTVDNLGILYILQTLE

HEK293 = experiment: inhibitors of LMP1-driven NF-kB reporter, dose response, cell-based, HEK293, luciferase, cherry-pick (AID 588343); format: functional; conditions: Homo sapiens
[15] = target: Latent membrane protein 1 (Human herpesvirus 4 (strain B95-8), UniProt P03230); experiment: TES1-eGFP NF-kB reporter inhibition versus Tet-On dsRED, dose response, selectivity assay for LMP1 NF-kB inhibitor project, imaging, HEK293T, dual-color eGFP/dsRED, cherry-picks (AID 588398); format: functional, cell-based
[16] = CAL PDZ domain peptide-binding inhibitors, dose response, biochemical, fluorescence polarization, untagged CAL PDZ, cherry-pick, set 2 (AID 602254); format: functional
CHO-K1 = experiment: Counterscreen for antagonists of the orexin 1 receptor (OX1R; HCRTR1): Homogeneous time resolved fluorescence (HTRF)-based cell-based dose response assay to identify antagonists of the parental CHO-K1 cell line. [Related pubchem assays (depositor defined):AID434989, AID435008, AID463079, AID485270, AID492963, AID492964, AID492965, AID493232, AID504699, AID504701]; format: functional; conditions: Cricetulus griseus
[17] = Counterscreen for antagonists of the orexin 1 receptor (OX1R; HCRTR1): Fluorescence-based cell-based high throughput dose response assay to identify antagonists of the parental CHO cell line. [Related pubchem assays (depositor defined):AID434989, AID435008, AID463079, AID485270, AID492963, AID492964, AID492965, AID493232, AID504699, AID504701]; format: functional
[18] = target: T4, Orexin/Hypocretin receptor type 1 (Homo sapiens, UniProt O43613); experiment: Homogeneous Time Resolved Fluorescence (HTRF)-based cell-based high throughput dose response assay for antagonists of the orexin 1 receptor (OX1R; HCRTR1). [Related pubchem assays (depositor defined):AID434989, AID435008, AID463079, AID485270, AID492963, AID492964, AID492965, AID493232, AID504717, AID504718]; format: functional
T4 sequence (O43613 whole entry): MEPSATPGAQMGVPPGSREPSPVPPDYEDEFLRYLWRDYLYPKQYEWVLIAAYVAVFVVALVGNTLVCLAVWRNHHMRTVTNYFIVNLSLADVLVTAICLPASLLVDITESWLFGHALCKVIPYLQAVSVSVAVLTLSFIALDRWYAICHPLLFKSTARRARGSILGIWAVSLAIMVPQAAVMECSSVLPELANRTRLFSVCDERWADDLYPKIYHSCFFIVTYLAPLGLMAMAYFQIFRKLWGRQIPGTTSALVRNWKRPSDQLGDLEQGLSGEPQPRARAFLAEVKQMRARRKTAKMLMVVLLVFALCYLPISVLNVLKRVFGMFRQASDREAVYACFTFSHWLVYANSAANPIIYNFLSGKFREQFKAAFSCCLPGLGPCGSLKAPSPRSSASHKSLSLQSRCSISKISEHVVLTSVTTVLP

[19] = target: T4, Orexin/Hypocretin receptor type 1; experiment: Fluorescence-based cell-based high throughput dose response assay for antagonists of the orexin 1 receptor (OX1R; HCRTR1). [Related pubchem assays (depositor defined):AID434989, AID435008, AID463079, AID485270, AID492963, AID492964, AID492965, AID493232, AID504717, AID504718]; format: functional
Orexin receptor type 2 [20] = target: T5, Orexin receptor type 2 (Homo sapiens, UniProt O43614); experiment: Counterscreen assay for antagonists of the orexin 1 receptor (OX1R; HCRTR1): Fluorescence-based cell-based dose response assay for antagonists of the orexin 2 receptor (OX2R; HCRTR2), run by assay provider.; format: functional
T5 sequence (O43614 whole entry): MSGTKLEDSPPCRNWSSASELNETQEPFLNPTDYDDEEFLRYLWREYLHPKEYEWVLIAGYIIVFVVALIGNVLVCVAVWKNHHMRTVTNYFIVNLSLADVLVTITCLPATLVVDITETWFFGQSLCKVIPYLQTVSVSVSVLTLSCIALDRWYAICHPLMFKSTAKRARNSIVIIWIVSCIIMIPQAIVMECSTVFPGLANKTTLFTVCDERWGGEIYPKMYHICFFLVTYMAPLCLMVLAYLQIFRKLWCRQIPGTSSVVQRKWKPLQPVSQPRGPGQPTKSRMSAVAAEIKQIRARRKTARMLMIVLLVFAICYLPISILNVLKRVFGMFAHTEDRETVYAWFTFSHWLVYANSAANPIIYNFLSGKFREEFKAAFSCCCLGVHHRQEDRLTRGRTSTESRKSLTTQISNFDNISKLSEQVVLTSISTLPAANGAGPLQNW

Orexin receptor type 2 [21] = target: T5, Orexin receptor type 2; experiment: Counterscreen assay for antagonists of the orexin 1 receptor (OX1R; HCRTR1): Homogeneous Time Resolved Fluorescence (HTRF)-based cell-based dose response assay for antagonists of the orexin 2 receptor (OX2R; HCRTR2), run by assay provider.; format: functional
[22] = target: Tyrosine-protein kinase SYK (Homo sapiens, UniProt P43405); format: functional
[23] = target: Mitogen-activated protein kinase 13 (Homo sapiens, UniProt O15264); format: functional
[24] = target: Proto-oncogene tyrosine-protein kinase Src (Homo sapiens, UniProt P12931); format: functional;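 further: SRC entry within a kinome-wide kinase profiling panel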
Proto-oncogene tyrosine-protein kinase Src, sequence (P12931 2-536 limits assumed): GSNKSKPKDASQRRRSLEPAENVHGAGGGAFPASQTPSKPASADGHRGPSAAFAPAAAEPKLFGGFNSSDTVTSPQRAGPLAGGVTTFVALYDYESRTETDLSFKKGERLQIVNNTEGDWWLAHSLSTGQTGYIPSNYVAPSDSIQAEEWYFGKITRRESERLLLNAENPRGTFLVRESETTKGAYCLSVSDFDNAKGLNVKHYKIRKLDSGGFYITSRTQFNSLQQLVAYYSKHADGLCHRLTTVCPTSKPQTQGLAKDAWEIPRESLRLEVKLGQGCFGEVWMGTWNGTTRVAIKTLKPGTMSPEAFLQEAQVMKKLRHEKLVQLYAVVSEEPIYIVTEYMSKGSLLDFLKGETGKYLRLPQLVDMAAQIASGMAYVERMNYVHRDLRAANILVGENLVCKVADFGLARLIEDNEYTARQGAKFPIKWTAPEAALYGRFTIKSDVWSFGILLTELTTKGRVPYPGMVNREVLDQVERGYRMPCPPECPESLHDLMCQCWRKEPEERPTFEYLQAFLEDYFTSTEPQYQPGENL

Latent membrane protein 1, sequence (P03230 whole entry, the tested form may be a part): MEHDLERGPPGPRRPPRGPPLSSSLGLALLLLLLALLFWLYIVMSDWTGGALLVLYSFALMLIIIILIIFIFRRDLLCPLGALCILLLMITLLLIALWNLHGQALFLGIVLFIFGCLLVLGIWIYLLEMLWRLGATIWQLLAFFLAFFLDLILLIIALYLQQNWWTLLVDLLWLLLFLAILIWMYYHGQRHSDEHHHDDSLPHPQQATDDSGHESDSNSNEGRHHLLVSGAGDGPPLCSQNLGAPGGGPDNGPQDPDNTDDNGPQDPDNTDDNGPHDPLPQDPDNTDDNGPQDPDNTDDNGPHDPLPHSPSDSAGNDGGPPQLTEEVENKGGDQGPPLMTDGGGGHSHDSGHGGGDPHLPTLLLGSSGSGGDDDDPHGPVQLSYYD
Melanin-concentrating hormone receptor 1, sequence (Q99705 whole entry): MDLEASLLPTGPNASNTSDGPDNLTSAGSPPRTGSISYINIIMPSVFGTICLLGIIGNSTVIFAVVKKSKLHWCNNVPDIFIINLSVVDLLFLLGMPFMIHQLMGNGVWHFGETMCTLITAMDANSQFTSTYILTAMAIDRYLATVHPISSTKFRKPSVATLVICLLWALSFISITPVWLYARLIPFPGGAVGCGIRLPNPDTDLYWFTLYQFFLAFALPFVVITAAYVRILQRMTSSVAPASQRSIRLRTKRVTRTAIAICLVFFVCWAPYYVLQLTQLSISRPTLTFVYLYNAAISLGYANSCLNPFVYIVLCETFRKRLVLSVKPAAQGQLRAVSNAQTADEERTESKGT
Glycogen synthase kinase-3 beta, sequence (P49841 whole entry): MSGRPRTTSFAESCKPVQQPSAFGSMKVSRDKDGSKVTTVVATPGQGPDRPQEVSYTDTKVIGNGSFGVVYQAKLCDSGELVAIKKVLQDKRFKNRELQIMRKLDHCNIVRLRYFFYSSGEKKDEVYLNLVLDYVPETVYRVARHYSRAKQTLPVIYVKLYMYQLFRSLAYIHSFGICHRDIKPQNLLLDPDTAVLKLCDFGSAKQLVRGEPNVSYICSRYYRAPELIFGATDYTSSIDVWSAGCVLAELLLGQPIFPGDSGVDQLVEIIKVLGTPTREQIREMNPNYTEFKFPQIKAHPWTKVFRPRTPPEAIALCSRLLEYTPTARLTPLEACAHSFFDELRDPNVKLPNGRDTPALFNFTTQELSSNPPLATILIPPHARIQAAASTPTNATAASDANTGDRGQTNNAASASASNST
Mitogen-activated protein kinase 13, sequence (O15264 whole entry): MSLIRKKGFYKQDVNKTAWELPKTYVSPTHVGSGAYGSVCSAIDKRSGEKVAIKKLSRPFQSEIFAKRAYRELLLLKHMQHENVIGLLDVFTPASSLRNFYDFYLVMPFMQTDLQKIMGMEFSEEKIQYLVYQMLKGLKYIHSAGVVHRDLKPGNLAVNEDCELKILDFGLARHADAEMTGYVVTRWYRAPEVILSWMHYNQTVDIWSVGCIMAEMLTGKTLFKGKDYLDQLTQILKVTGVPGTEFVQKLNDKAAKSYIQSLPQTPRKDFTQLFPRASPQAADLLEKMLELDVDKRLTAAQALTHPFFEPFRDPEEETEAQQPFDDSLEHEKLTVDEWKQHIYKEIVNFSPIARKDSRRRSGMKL
Mitogen-activated protein kinase kinase kinase kinase 4, sequence (O95819 whole entry): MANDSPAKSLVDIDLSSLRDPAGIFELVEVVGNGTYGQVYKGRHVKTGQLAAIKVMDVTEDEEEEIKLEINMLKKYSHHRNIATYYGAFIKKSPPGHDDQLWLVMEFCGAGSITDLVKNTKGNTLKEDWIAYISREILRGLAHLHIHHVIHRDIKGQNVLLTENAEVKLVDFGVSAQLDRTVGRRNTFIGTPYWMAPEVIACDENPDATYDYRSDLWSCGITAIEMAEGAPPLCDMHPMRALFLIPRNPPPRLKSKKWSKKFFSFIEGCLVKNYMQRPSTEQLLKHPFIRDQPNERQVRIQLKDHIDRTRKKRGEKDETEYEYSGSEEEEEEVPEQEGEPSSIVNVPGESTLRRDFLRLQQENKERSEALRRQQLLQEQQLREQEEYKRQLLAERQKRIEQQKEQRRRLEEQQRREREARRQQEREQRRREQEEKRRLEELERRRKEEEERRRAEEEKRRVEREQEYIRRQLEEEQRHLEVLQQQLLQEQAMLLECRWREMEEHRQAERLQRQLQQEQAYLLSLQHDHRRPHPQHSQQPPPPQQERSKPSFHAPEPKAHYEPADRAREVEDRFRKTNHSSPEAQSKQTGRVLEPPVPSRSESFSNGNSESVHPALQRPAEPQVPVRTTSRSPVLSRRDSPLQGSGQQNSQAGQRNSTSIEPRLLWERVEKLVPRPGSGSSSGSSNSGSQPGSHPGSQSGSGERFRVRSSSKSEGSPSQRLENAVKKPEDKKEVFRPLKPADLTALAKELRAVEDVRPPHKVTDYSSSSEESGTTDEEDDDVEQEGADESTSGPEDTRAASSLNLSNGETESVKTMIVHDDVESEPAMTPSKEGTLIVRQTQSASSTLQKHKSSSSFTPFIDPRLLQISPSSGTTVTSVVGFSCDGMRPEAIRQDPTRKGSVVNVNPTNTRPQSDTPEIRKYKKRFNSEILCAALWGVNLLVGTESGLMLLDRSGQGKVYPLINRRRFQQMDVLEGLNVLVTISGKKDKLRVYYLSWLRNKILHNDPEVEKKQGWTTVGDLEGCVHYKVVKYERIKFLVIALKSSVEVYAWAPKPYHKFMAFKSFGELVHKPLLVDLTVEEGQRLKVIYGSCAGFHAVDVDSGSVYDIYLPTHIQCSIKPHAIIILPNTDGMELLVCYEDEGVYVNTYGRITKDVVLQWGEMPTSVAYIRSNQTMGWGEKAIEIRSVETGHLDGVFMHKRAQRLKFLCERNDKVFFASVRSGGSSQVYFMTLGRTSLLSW
Mitochondrial peptide methionine sulfoxide reductase, sequence (P54149 whole entry, the tested form may be a part): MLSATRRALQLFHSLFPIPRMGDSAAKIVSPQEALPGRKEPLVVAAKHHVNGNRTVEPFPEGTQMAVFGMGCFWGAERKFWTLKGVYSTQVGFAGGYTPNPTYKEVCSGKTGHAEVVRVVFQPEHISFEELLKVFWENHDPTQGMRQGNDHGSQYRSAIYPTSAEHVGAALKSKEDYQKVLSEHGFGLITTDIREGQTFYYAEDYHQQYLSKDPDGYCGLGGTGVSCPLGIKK
Serine/threonine-protein kinase pim-1, sequence (P11309 whole entry): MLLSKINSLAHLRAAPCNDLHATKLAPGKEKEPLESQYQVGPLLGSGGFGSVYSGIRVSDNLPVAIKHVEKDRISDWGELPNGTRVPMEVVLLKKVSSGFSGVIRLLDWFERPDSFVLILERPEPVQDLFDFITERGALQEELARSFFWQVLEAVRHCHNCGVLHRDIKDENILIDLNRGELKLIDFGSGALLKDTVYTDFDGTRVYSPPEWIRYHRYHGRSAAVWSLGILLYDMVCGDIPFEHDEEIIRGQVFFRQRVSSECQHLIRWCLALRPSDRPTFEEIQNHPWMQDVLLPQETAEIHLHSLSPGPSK
Beta Lactamase, sequence (Q932Y6 whole entry): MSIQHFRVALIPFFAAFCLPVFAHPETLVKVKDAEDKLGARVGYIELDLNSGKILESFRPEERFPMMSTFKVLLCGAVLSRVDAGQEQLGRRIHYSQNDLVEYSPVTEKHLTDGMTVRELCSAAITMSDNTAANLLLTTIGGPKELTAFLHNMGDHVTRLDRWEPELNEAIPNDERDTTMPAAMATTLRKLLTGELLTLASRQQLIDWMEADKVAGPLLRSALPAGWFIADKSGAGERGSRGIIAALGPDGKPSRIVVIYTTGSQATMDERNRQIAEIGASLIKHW
Interleukin-1 receptor-associated kinase 4, sequence (Q9NWZ3 whole entry): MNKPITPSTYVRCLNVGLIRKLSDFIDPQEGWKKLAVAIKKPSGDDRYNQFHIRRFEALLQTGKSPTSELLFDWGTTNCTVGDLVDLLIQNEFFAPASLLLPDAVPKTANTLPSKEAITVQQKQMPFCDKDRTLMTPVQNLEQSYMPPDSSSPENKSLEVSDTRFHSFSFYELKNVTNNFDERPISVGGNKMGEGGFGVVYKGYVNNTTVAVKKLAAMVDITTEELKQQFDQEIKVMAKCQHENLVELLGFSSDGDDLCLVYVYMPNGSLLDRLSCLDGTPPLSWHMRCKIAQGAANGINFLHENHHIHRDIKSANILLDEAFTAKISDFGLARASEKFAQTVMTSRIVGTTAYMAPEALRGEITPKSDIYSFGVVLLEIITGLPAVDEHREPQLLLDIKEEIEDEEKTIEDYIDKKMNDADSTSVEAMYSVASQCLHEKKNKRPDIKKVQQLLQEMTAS

## NC(=O)c1cnccn1 [PYRAZINAMIDE]
[1]
  CC50: > 100 µM (active)

## COC(=O)CC/C(C)=N\Nc1ccc([N+](=O)[O-])cc1[N+](=O)[O-]
[2]
  IC50: 155 µM (inactive)

## CCN(CC)c1ccc(C=NNc2ccc([N+](=O)[O-])cn2)cc1
CHO
  IC50: 24.3 µM (inactive)
[3]
  EC50: > 99 µM (inactive)
Beta Lactamase
  IC50: 4.5 µM (active)
[4]
  EC50: 70.2 µM (inactive)

## CCOC(=O)C(C#N)c1c(Cl)c(Br)nn(Cc2cccc3ccccc23)c1=O (stereo unspecified)
[5]
  IC50: 1.45 µM (active)
[6]
  IC50: 3.33 µM (active)

## Cc1n[nH]c2ccc(-c3cncc(OCCN(C)S(C)(=O)=O)c3)cc12
[7]
  Ki: 5.01 µM (active)
[8]
  Ki: 0.0126 µM (active)
[9]
  Ki: > 3.16 µM (inactive)
[10]
  Ki: 3.16 µM (active)
[11]
  Ki: 0.398 µM (active)
[12]
  Ki: 0.631 µM (active)
[13]
  Ki: 0.126 µM (active)

## CCOc1ccccc1NC(=O)CCS(=O)(=O)c1ccc2c(c1)CCN2C(C)=O
[14]
  EC50: > 100 µM (inactive)

## Nc1nc2ccccc2n1C(=O)c1ccccc1
HEK293
  AC50: 5.38 µM (active)
[15]
  AC50: 108 µM (active)

## O=C(CNC(=O)c1ccc2c(c1)OCCO2)N/N=C/c1ccc(Cl)cc1
[16]
  AC50: 101 µM (active)

## Cc1c(/C=C/C(=O)c2cccs2)cnn1C
CHO-K1
  IC50: 35 µM (inactive)
[17]
  IC50: > 49.8 µM (inactive)
[18]
  IC50: 3.97 µM (active)
[19]
  IC50: > 49.8 µM (inactive)
Orexin receptor type 2 [20]
  IC50: > 88.8 µM (inactive)
Orexin receptor type 2 [21]
  IC50: > 50 µM (inactive)

## COc1ccc(Oc2c(Cl)cnn(Cc3cccc4ccccc34)c2=O)c(F)c1F
[5]
  IC50: 0.292 µM (active)
[6]
  IC50: 2.05 µM (active)

## COCCCNCC1C(Oc2ccc(Cl)cc2)C(=O)N1c1ccccc1C (stereo unspecified)
[15]
  AC50: 28.2 µM (active)

## Cn1cc(C=C2C(=O)Nc3cccnc32)c2ccccc21 [GW441756X]
[22]
  Ki: 0.501 µM (active)
[23]
  Ki: > 7.94 µM (inactive)
[24]
  Ki: 0.501 µM (active)
